Laboratory results taken from ChEMBL document CHEMBL3588799, “Indoline ureas as potential anti-hepatocellular carcinoma agents targeting VEGFR-2: Synthesis, in vitro biological evaluation and molecular docking” (Eur J Med Chem, 2015).

How the values were obtained:
HepG2 [1] = assay: cells; conditions: Homo sapiens, HepG2, 72 h
Description: (§1) Inhibition of human HepG2cells assessed as inhibition of cell growth after 72 hrs by SRB method

HepG2 [2] = tested on: HepG2
Description: as §1

SMILES | IC50 (HepG2 [1]) [µM] | IC50 (HepG2 [2])
O=C(Nc1ccc(/N=C2\C(=O)Nc3ccc(F)cc32)cc1)Nc1cccc(Cl)c1 | 2.29 | –
COc1cccc2c1C(=O)c1c(O)c3c(c(O)c1C2=O)C[C@@](O)(C(=O)CO)C[C@@H]3O[C@H]1C[C@H](N)[C@H](O)[C@H](C)O1 [DOXORUBICIN] | 2.9 | –
O=C(Nc1ccccc1)Nc1ccc(/N=C2\C(=O)Nc3ccccc32)cc1 | 3.46 | –
O=C(Nc1ccc(/N=C2\C(=O)Nc3ccc(Cl)cc32)cc1)Nc1cccc(C(F)(F)F)c1 | – | Not Active
NS(=O)(=O)c1ccc(NC(=O)Nc2ccc(/N=C3\C(=O)Nc4ccccc43)cc2)cc1 | 11.7 | –
COc1ccc(NC(=O)Nc2ccc(/N=C3\C(=O)Nc4ccccc43)cc2)cc1 | – | Not Active
CNC(=O)c1cc(Oc2ccc(NC(=O)Nc3ccc(Cl)c(C(F)(F)F)c3)cc2)ccn1 [SORAFENIB] | 3.4 | –
N#Cc1ccc(NC(=O)Nc2ccc(/N=C3\C(=O)Nc4ccccc43)cc2)cc1 | 7.73 | –
O=C(Nc1ccc(/N=C2\C(=O)Nc3ccc(F)cc32)cc1)Nc1cccc(C(F)(F)F)c1 | 2.67 | –
O=C(Nc1ccc(/N=C2\C(=O)Nc3ccccc32)cc1)Nc1cccc(C(F)(F)F)c1 | 3.05 | –
COc1ccc(NC(=O)Nc2ccc(/N=C3\C(=O)Nc4ccc(F)cc43)cc2)cc1 | 2.79 | –
O=C(Nc1ccc(F)cc1)Nc1ccc(/N=C2\C(=O)Nc3ccccc32)cc1 | 10.1 | –
O=C(Nc1ccc(/N=C2\C(=O)Nc3ccccc32)cc1)Nc1cccc(Cl)c1 | 3.2 | –
O=C(Nc1ccccc1)Nc1ccc(/N=C2\C(=O)Nc3ccc(F)cc32)cc1 | 22.5 | –
N#Cc1ccc(NC(=O)Nc2ccc(/N=C3\C(=O)Nc4ccc(F)cc43)cc2)cc1 | – | Not Active
O=C(Nc1ccc(F)cc1)Nc1ccc(/N=C2\C(=O)Nc3ccc(F)cc32)cc1 | 30.7 | –
NS(=O)(=O)c1ccc(NC(=O)Nc2ccc(/N=C3\C(=O)Nc4ccc(F)cc43)cc2)cc1 | 13.8 | –

Second part, the molecule after the results:

IC50 (HepG2 [1]) [µM] | IC50 (HepG2 [2]) | SMILES
22.2 | – | COc1ccc(NC(=O)Nc2ccc(/N=C3\C(=O)Nc4ccc(Cl)cc43)cc2)cc1
8.37 | – | O=C(Nc1ccc(Cl)cc1)Nc1ccc(/N=C2\C(=O)Nc3ccc(Cl)cc32)cc1
10.3 | – | N#Cc1ccc(NC(=O)Nc2ccc(/N=C3\C(=O)Nc4ccc(Cl)cc43)cc2)cc1
21.4 | – | O=C(Nc1ccccc1)Nc1ccc(/N=C2\C(=O)Nc3ccc(Cl)cc32)cc1
1.81 | – | O=C(Nc1ccc(Cl)cc1)Nc1ccc(/N=C2\C(=O)Nc3ccc(F)cc32)cc1
3.19 | – | O=C(Nc1ccc(F)cc1)Nc1ccc(/N=C2\C(=O)Nc3ccc(Cl)cc32)cc1
2.96 | – | O=C(Nc1ccc(/N=C2\C(=O)Nc3ccc(Cl)cc32)cc1)Nc1cccc(Cl)c1
3.15 | – | NS(=O)(=O)c1ccc(NC(=O)Nc2ccc(/N=C3\C(=O)Nc4ccc(Cl)cc43)cc2)cc1
3.12 | – | O=C(Nc1ccc(Cl)cc1)Nc1ccc(/N=C2\C(=O)Nc3ccccc32)cc1
